Measured values as given in patent US20230372364A1, “METHOD OF TREATING GABA MEDIATED DISORDERS” (Eliem Therapeutics (UK) Ltd, priority 2020, published 2023).

Tests used:
[1] = test system: human subjects; experiment: Phase 1 study of safety, tolerability and pharmacokinetics in healthy volunteers (Example 1); type: in vivo; details: Phase 1 study participants
Excerpt: The study is a first in-human study of ATN-10155 is designed to assess the safety, tolerability, and pharmacokinetics of ATN-10155 following administration of two phases: a single ascending dose phase and multiple ascending dose phase. The study is a randomized, double-blind study with participants in each cohort receiving active drug or matching placebo. The study evaluates the safety, tolerability, and pharmacokinetics of ATN-10155 following the single and multiple dose phases in healthy volunteers. […]
Single Ascending Dose—the Single Ascending Dose portion comprises five or more cohorts with eight participants in each cohort, 6 actively receiving ATN-10155 and 2 receiving a placebo. […] Sentinel dosing is not employed once the maximum tolerated dose is determined or if an intermediate cohort is added that that is lower than the dose of the previous cohort. […]
Safety and tolerability—A physical and neurological exam is done as part of the eligibility evaluation at screening. […] Systolic blood pressure, diastolic blood pressure, pulse, and peripheral arterial oxygen saturation (pulse oximetry) is recorded prior to every PK blood sample (including pre-dose) in the single ascending dose portion. […] If a post-menopausal female, follicle stimulating hormone levels is measured at screening. […]

[2] = target: T1, CYP2C8 (Homo sapiens, UniProt P10632); experiment: Repaglinide drug-drug interaction in humans; type: in vivo; details: repaglinide exposure after 14 day repeat doses
T1 construct: from tissue; host or cells: human volunteers in vivo (endogenous, mainly hepatic, enzyme: own knowledge)
T1 sequence (P10632 1-490): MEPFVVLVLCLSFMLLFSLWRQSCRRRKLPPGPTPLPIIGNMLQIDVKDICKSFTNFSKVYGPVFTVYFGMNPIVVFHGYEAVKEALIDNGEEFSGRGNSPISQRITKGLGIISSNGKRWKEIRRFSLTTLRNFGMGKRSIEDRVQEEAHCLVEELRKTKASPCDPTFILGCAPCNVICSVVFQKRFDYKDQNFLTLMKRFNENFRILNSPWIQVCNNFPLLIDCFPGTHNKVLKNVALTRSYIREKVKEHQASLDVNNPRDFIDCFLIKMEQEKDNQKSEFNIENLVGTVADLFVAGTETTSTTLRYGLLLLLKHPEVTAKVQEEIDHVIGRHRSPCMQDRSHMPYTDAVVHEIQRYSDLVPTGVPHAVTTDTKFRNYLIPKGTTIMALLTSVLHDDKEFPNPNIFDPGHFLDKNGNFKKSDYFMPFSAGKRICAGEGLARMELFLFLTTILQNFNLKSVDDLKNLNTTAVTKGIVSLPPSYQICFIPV

[3] = In vitro genetic toxicology studies; details: two in vitro studies
[4] = Pharmacokinetic parameters in preclinical rodent studies; type: in vivo; set-up: Oral BA / ½ life: unit not given here
Description: The pharmacokinetic parameters of CV-10155 in preclinical studies on rodent models of seizure, anxiety, depression and EEG biomarker were analyzed.

[5] = target: α4β3δ Extra synaptic receptors (GABAA) (Homo sapiens, UniProt P28472+P48169); experiment: GABAA receptor potency and efficacy (EC50, Emax), α4β3δ; type: cell-based
[6] = 1 mg/kg (minimal effective dose), male and female subjects
[7] = 3 mg/kg, male and female subjects
[8] = 10 mg/kg, male and female subjects

α4β3δ Extra synaptic receptors (GABAA), sequence (P48169 36-554): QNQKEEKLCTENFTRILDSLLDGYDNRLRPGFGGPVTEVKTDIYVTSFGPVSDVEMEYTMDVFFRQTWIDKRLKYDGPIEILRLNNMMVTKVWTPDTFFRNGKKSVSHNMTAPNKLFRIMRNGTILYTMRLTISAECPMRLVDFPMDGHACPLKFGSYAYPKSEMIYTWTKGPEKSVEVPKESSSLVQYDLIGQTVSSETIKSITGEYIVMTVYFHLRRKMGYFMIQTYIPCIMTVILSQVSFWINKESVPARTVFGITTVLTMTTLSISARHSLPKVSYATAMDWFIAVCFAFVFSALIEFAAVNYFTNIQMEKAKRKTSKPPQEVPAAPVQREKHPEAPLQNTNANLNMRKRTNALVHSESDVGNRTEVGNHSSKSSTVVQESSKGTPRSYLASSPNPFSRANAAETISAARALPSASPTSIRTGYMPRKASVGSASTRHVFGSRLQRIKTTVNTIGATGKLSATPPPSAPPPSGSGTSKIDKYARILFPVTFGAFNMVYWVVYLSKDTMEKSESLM
α4β3δ Extra synaptic receptors (GABAA), sequence (P28472 26-473): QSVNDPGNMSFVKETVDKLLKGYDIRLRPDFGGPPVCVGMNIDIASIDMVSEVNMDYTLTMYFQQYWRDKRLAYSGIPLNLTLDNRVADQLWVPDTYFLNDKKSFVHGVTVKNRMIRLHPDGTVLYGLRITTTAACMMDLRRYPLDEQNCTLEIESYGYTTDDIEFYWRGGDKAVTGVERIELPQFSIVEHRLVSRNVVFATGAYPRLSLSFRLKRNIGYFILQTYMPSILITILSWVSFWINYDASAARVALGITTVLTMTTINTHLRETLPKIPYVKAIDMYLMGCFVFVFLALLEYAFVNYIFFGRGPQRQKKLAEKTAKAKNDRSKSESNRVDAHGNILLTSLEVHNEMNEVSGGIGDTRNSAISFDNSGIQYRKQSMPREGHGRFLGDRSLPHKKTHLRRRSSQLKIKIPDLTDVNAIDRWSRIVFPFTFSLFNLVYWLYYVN
α4β3δ Extra synaptic receptors (GABAA), sequence (O14764 25-452 partner): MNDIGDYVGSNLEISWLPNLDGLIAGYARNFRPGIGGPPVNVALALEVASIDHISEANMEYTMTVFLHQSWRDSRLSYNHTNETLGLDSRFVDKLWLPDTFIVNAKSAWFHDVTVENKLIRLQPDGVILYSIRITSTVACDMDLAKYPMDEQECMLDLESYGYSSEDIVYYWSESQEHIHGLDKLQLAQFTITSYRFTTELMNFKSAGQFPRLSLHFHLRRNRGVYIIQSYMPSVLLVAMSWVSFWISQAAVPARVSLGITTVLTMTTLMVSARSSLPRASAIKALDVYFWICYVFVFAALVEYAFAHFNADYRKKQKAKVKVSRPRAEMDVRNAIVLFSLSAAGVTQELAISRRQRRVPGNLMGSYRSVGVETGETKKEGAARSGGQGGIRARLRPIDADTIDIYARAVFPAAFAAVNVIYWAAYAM

C[C@@]1(O)CC[C@@]2(C)[C@@H](CC[C@@H]3[C@@H]2CC[C@]2(C)[C@@H](C(=O)Cn4cc(C#N)cn4)CC[C@@H]32)C1 [CV-10155, 1-[2-[(3R,5S,8R,9S,10S,13S,14S,17S)-3-hydroxy-3,10,13-trimethyl-1,2,4,5,6,7,8,9,11,12,14,15,16,17-tetradecahydrocyclopenta[a]phenanthren-17-yl]-2-oxoethyl]pyrazole-4-carbonitrile]
serious adverse events [1]: minimal to no serious adverse events
severe adverse events [1]: minimal to no severe adverse events
DDI inhibitory effect at CYP2C8 level [2]: no or minimal DDI inhibitory effect
genetic toxicology findings [3]: no positive findings
AUC0-inf [4, 6]: 508-1301
Cmax [4, 6]: 84.4-128
Oral BA [4, 6]: 58.6-92.4
Tmax [4, 6]: 1.5-2^
½ life [4, 6]: 3.66-6.82
Oral BA ([4]; 2 mg/kg, only male subjects): 47.2
Tmax ([4]; 2 mg/kg, only male subjects, in h): 1.7
Cmax ([4]; 2 mg/kg, only male subjects, in ng/mL): 224
AUC0-inf ([4]; 2 mg/kg, only male subjects, in ng·h/mL): 1319
AUC0-inf [4, 7]: 1378-3899
Cmax [4, 7]: 270-440
Oral BA [4, 7]: 53-92.3
½ life [4, 7]: 2.84-4.96
Tmax ([4]; 3 mg/kg, male and female subjects, in h): 1.25-2.50
Oral BA ([4]; 5 mg/kg, only male subjects): 58.1
½ life ([4]; 5 mg/kg, only male subjects): 4.19
Tmax ([4]; 5 mg/kg, only male subjects, in h): 0.83
Cmax ([4]; 5 mg/kg, only male subjects, in ng/mL): 499
AUC0-inf ([4]; 5 mg/kg, only male subjects, in ng·h/mL): 2610
AUC0-inf [4, 8]: 6848-14667
Oral BA [4, 8]: 79.7-100
½ life [4, 8]: 3.23-4.80
Tmax ([4]; 10 mg/kg, male and female subjects, in h): 1.25-2.25
Cmax ([4]; 10 mg/kg, male and female subjects, in ng/mL): 1165
fold higher efficiency at extra synaptic vs. synaptic channels [5]: 3 fold
preferential modulation of α4β3δ subtype compared to α1β2γ2 subtype ([5]; isomerically pure compositions): preferentially modulate
